Test results from patent publication US20240018161A1, “MODULATORS OF CYSTIC FIBROSIS TRANSMEMBRANE CONDUCTANCE REGULATOR” (VERTEX PHARMACEUTICALS INCORPORATED, priority 2020, published 2024).
Read-outs that look alike come from different tables or passages of the source.

Target: CFTR-mediated chloride transport in human intestinal epithelial enteroid cells (Homo sapiens, UniProt P13569)
Experiment: Membrane potential dye, Enteroid Assay A
Assay type: cell-based
Details: for EC50: read-out: Ent. A EC50
Procedure: Base medium (ADF+++) consisted of Advanced DMEM/Ham's F12, 2 mM Glutamax, 10 mM HEPES, […] penicillin/streptomycin.
Bath 1 Buffer consisted of 1 mM MgCl2, 160 mM NaCl, 4.5 mM KCl, 10 mM HEPES, 10 mM Glucose, 2 mM CaCl2.
Chloride Free Buffer consisted of 1 mM Magnesium Gluconate, 2 mM Calcium Gluconate, 4.5 mM Potassium Gluconate, 160 mM Sodium Gluconate, 10 mM HEPES, 10 mM Glucose.
Bath1 Dye Solution consisted of Bath 1 Buffer, 0.04% Pluronic F127, 20 μM Methyl Oxonol, 30 μM CaCCinh-A01, 30 μM Chicago Sky Blue.
Chloride Free Dye Solution consisted of Chloride Free Buffer, 0.04% Pluronic F127, 20 μM Methyl Oxonol, 30 μM CaCCinh-A01, 30 μM Chicago Sky Blue.
3. Enteroid Cell Harvesting and Seeding
Cells were recovered in cell recovery solution, collected by centrifugation at 650 rpm for 5 min at 4° C., resuspended in TryPLE and incubated for 5 min at 37° C. Cells were then collected by centrifugation at 650 rpm for 5 min at 4° C. and resuspended in IEMM containing 10 μM ROCK inhibitor (RI).
4. Membrane Potential Dye, Enteroid Assay A
Briefly, cells were washed 5 times in Bath 1 Buffer. Bath 1 Dye Solution was added, and the cells were incubated for 25 min at room temperature. Following dye incubation, cells were washed 3 times in Chloride Free Dye Solution. Chloride transport was initiated by addition of Chloride Free Dye Stimulation Solution and the fluorescence signal was read for 15 min. […] Chloride transport was then expressed as a percentage of the chloride transport following treatment with 3 μM N-[(6-amino-2-pyridyl)sulfonyl]-6-(3-fluoro-5-isobutoxy-phenyl)-2-[(4S)-2,2,4-trimethylpyrrolidin-1-yl]pyridine-3-carboxamide, 3 μM (R)-1-(2,2-difluorobenzo[d][1,3]dioxol-5-yl)-N-(1-(2,3-dihydroxypropyl)-6-fluoro-2-(1-hydroxy-2-methylpropan-2-yl)-1H-indol-5-yl)cyclopropanecarboxamide and 300 nM acute N-[2,4-bis(1,1-dimethylethyl)-5-hydroxyphenyl]-1,4-dihydro-4-oxoquinoline-3-carboxamide triple combination control (% Activity).

[1] = percentage of chloride transport of triple combination control (3 μM N-[(6-amino-2-pyridyl)sulfonyl]-6-(3-fluoro-5-isobutoxy-phenyl)-2-[(4S)-2,2,4-trimethylpyrrolidin-1-yl]pyridine-3-carboxamide based)
[2] = enteroid cells incubated with test compound 18-24 hours, acute 10 μM forskolin and 300 nM N-[2,4-bis(1,1-dimethylethyl)-5-hydroxyphenyl]-1,4-dihydro-4-oxoquinoline-3-carboxamide

Chain of CFTR-mediated chloride transport in human intestinal epithelial enteroid cells (P13569 with tags, fused parts or gaps DEL508-508): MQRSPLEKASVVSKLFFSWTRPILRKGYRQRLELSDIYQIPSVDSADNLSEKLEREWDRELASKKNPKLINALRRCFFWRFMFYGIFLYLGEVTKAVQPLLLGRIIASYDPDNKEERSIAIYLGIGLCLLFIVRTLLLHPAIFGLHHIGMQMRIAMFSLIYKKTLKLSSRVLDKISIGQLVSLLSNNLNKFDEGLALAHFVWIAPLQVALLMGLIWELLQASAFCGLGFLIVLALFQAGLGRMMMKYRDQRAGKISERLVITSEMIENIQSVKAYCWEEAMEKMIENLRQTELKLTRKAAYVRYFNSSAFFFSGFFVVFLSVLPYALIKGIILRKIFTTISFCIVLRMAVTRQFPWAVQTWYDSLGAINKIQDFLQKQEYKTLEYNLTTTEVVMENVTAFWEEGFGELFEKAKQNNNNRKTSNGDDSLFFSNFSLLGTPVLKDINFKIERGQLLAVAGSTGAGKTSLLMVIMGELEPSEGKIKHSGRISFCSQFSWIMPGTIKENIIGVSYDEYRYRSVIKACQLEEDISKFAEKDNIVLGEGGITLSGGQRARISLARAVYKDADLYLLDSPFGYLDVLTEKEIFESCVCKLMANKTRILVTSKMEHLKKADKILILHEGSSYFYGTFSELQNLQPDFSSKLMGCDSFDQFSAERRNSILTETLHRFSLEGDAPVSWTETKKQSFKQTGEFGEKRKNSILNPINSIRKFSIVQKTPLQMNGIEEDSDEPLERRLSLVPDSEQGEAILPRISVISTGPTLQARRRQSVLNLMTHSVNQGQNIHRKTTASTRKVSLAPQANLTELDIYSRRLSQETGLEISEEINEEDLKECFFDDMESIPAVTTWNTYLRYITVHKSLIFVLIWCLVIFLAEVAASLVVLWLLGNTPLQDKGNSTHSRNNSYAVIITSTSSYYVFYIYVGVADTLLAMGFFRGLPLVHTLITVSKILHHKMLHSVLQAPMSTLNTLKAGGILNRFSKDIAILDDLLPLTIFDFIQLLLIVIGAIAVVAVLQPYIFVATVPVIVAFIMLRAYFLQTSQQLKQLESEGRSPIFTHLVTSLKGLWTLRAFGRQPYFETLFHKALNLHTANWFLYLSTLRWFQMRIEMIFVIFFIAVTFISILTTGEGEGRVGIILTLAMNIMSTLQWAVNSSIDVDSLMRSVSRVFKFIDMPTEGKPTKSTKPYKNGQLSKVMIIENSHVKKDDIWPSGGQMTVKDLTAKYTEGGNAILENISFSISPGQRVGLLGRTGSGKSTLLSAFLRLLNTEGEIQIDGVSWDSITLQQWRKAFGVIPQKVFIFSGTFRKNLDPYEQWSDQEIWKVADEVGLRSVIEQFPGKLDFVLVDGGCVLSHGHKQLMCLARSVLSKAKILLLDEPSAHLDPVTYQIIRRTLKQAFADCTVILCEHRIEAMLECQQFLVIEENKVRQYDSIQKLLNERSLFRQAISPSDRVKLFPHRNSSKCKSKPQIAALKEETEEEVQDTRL

Ent. A Max Activity (%) (Enteroid Assay A) | EC50 (Enteroid Assay A) [nM] | Structure (SMILES) | further results
– | – | Cc1cccc(C)c1-c1cc2nc(n1)NS(=O)(=O)c1cccc(c1)C(=O)N1CCN(C[C@@H]3CC(C)(C)NC3=O)C[C@@H]1CO2 (stereo in doubt) [Compound 293] | Ent. A Max Activity (%) [1]: + (+ is <300%)
– | – | Cc1cccc(C)c1-c1cc2nc(n1)NS(=O)(=O)c1cccc(c1)C(=O)N1Cc3ccccc3[C@@H](O2)[C@H]1CC(C)C (stereo in doubt) [Compound 332] | EC50 [2]: < 1000 nM; Ent. A Max Activity (%) [1]: +++ (+++ is >60%)
– | – | Cc1cccc(C)c1-c1cc2nc(n1)NS(=O)(=O)c1cccc(c1)C(=O)N1CCNC[C@H](C1)O2 [Compound 2, (16R)-12-(2,6-Dimethylphenyl)-15-oxa-8λ^6-thia-1,9,11,18,22-pentaazatetracyclo[14.4.1.13,7.110,14]tricosa-3,5,7(23),10,12,14(22)-hexaene-2,8,8-trione] | EC50 [2]: 3000 to 30000 nM; Ent. A Max Activity (%) [1]: +++ (+++ is >60%)
+++ (+++ is >600%) | < 1000 | Cc1cccc(C)c1-c1cc2nc(n1)NS(=O)(=O)c1cccc(c1)C(=O)N1CCN(C3CC4(CCCCC4)C3)C[C@H](C1)O2 [Compound 3, (16R)-12-(2,6-Dimethylphenyl)-18-{spiro[3.5]nonan-2-yl}-15-oxa-8λ^6-thia-1,9,11,18,22-pentaazatetracyclo[14.4.1.13,7.110,14]tricosa-3(23),4,6,10(22),11,13-hexaene-2,8,8-trione] | –
+++ (+++ is >600%) | < 1000 | Cc1cccc(C)c1-c1cc2nc(n1)NS(=O)(=O)c1cccc(c1)C(=O)N1CCN(C3CCC(F)(F)CC3)C[C@H](C1)O2 [Compound 4, (16R)-18-(4,4-Difluorocyclohexyl)-12-(2,6-dimethylphenyl)-15-oxa-8λ^6-thia-1,9,11,18,22-pentaazatetracyclo[14.4.1.13,7.110,14]tricosa-3(23),4,6,10(22),11,13-hexaene-2,8,8-trione] | –
– | – | Cc1cccc(C)c1-c1cc2nc(n1)NS(=O)(=O)c1cccc(c1)C(=O)N1CCN(C3CCC(C)(C)CC3)C[C@H](C1)O2 [Compound 5, (16R)-18-(4,4-Dimethylcyclohexyl)-12-(2,6-dimethylphenyl)-15-oxa-8λ^6-thia-1,9,11,18,22-pentaazatetracyclo[14.4.1.13,7.110,14]tricosa-3(23),4,6,10,12,14(22)-hexaene-2,8,8-trione] | Ent. A Max Activity (%): +++ (key: +++ is >600%; ++ is 30-60%; + is <30%); EC50: < 1000 nM
+++ (+++ is >600%) | < 1000 | Cc1cccc(C)c1-c1cc2nc(n1)NS(=O)(=O)c1cccc(c1)C(=O)N1CCN(C3CCCC3)C[C@H](C1)O2 [Compound 6, (16R)-18-cyclopentyl-12-(2,6-dimethylphenyl)-8,8-dioxo-15-oxa-8λ^6-thia-1,9,11,18,22-pentazatetracyclo[14.4.1.13,7.110,14]tricosa-3,5,7(23),10(22),11,13-hexaen-2-one] | –
+++ (+++ is >600%) | < 1000 | Cc1cccc(C)c1-c1cc2nc(n1)NS(=O)(=O)c1cccc(c1)C(=O)N1CCN(C3CC4(CCCC4)C3)C[C@H](C1)O2 [Compound 8, (16R)-12-(2,6-Dimethylphenyl)-18-{spiro[3.4]octan-2-yl}-15-oxa-8λ^6-thia-1,9,11,18,22-pentaazatetracyclo[14.4.1.13,7.110,14]tricosa-3(23),4,6,10(22),11,13-hexaene-2,8,8-trione] | –
+++ (+++ is >600%) | < 1000 | CCC(CC)N1CCN2C[C@@H](C1)Oc1cc(-c3c(C)cccc3C)nc(n1)NS(=O)(=O)c1cccc(c1)C2=O [Compound 11, (16R)-12-(2,6-Dimethylphenyl)-18-(1-ethylpropyl)-8,8-dioxo-15-oxa-8λ^6-thia-1,9,11,18,22-pentazatetracyclo[14.4.1.13,7.110,14]tricosa-3,5,7(23),10,12,14(22)-hexaen-2-one] | –
+++ (+++ is >600%) | < 1000 | Cc1cccc(C)c1-c1cc2nc(n1)NS(=O)(=O)c1cccc(c1)C(=O)N1CCN(C3CCC4(CCCCC4)CC3)C[C@H](C1)O2 [Compound 12] | –
+++ (+++ is >600%) | < 1000 | Cc1cccc(C)c1-c1cc2nc(n1)NS(=O)(=O)c1cccc(c1)C(=O)N1CCN(C3CCC4(CC3)CC4)C[C@H](C1)O2 [Compound 13] | –
+++ (+++ is >600%) | < 1000 | Cc1cccc(C)c1-c1cc2nc(n1)NS(=O)(=O)c1cccc(c1)C(=O)N1CCN(CC3(C)CCOCC3)C[C@H](C1)O2 [Compound 14] | –
+++ (+++ is >600%) | < 1000 | Cc1cccc(C)c1-c1cc2nc(n1)NS(=O)(=O)c1cccc(c1)C(=O)N1CCN(C3CCC4CC43)C[C@H](C1)O2 (stereo partly shown) [Compound 15] | –
+++ (+++ is >600%) | < 1000 | Cc1cccc(C)c1-c1cc2nc(n1)NS(=O)(=O)c1cccc(c1)C(=O)N1CCN(Cc3ccc(C(C)(C)C)cc3)C[C@H](C1)O2 [Compound 16] | –
+++ (+++ is >600%) | < 1000 | Cc1cccc(C)c1-c1cc2nc(n1)NS(=O)(=O)c1cccc(c1)C(=O)N1CCN(CC3C4(CC4)C34CC4)C[C@H](C1)O2 [Compound 17] | –
+ (+ is <30%) | 1000 to 3000 | Cc1cccc(C)c1-c1cc2nc(n1)NS(=O)(=O)c1cccc(c1)C(=O)N1CCN(CCC3C4(CC4)C34CC4)C[C@H](C1)O2 [Compound 18] | –

Ent. A Max Activity (%) (Enteroid Assay A) | EC50 (Enteroid Assay A) [nM] | Structure (SMILES) | further results
+++ (+++ is >600%) | < 1000 | Cc1cccc(C)c1-c1cc2nc(n1)NS(=O)(=O)c1cccc(c1)C(=O)N1CCN(CC(C)(C)C)C[C@H](C1)O2 [Compound 19] | –
+++ (+++ is >600%) | < 1000 | Cc1cccc(C)c1-c1cc2nc(n1)NS(=O)(=O)c1cccc(c1)C(=O)N1CCN(C3C(C)(C)CC3(C)C)C[C@H](C1)O2 [Compound 20] | –
+++ (+++ is >600%) | < 1000 | Cc1cccc(C)c1-c1cc2nc(n1)NS(=O)(=O)c1cccc(c1)C(=O)N1CCN(C3CC(F)(F)C3)C[C@H](C1)O2 [Compound 21] | –
+++ (+++ is >600%) | < 1000 | Cc1cccc(C)c1-c1cc2nc(n1)NS(=O)(=O)c1cccc(c1)C(=O)N1CCN(C3CCCCC3)C[C@H](C1)O2 [Compound 22] | –
+++ (+++ is >600%) | < 1000 | Cc1cccc(C)c1-c1cc2nc(n1)NS(=O)(=O)c1cccc(c1)C(=O)N1CCN(C3CC4(CC4)C3)C[C@H](C1)O2 [Compound 23] | –
++ (++ is 30-60%) | < 1000 | Cc1cccc(C)c1-c1cc2nc(n1)NS(=O)(=O)c1cccc(c1)C(=O)N1CCN(C3CC(C)(C)C3)C[C@H](C1)O2 [Compound 24] | –
++ (++ is 30-60%) | 3000 to 30000 | Cc1cccc(C)c1-c1cc2nc(n1)NS(=O)(=O)c1cccc(c1)C(=O)N1CCN(C3CC4(COC4)C3)C[C@H](C1)O2 [Compound 25] | –
+++ (+++ is >600%) | < 1000 | Cc1cccc(C)c1-c1cc2nc(n1)NS(=O)(=O)c1cccc(c1)C(=O)N1CCN(C3CC4(CCC4)C3)C[C@H](C1)O2 [Compound 26] | –
++ (++ is 30-60%) | < 1000 | Cc1cccc(C)c1-c1cc2nc(n1)NS(=O)(=O)c1cccc(c1)C(=O)N1CCN(C3CCC3)C[C@H](C1)O2 [Compound 27] | –
+++ (+++ is >600%) | 3000 to 30000 | Cc1cccc(C)c1-c1cc2nc(n1)NS(=O)(=O)c1cccc(c1)C(=O)N1CCN(C3CCOCC3)C[C@H](C1)O2 [Compound 28] | –
+++ (+++ is >600%) | 3000 to 30000 | Cc1cccc(C)c1-c1cc2nc(n1)NS(=O)(=O)c1cccc(c1)C(=O)N1CCN(CC3CC(C(=O)O)C3)C[C@H](C1)O2 (stereo partly shown) [Compound 29] | –
+++ (+++ is >600%) | 1000 to 3000 | Cc1cccc(C)c1-c1cc2nc(n1)NS(=O)(=O)c1cccc(c1)C(=O)N1CCN(CC3CCOC3)C[C@H](C1)O2 (stereo partly shown) [Compound 30] | –
+++ (+++ is >600%) | < 1000 | CCCN1CCN2C[C@@H](C1)Oc1cc(-c3c(C)cccc3C)nc(n1)NS(=O)(=O)c1cccc(c1)C2=O [Compound 31] | –
+++ (+++ is >600%) | < 1000 | CCCCN1CCN2C[C@@H](C1)Oc1cc(-c3c(C)cccc3C)nc(n1)NS(=O)(=O)c1cccc(c1)C2=O [Compound 32] | –
+++ (+++ is >600%) | 3000 to 30000 | Cc1cccc(C)c1-c1cc2nc(n1)NS(=O)(=O)c1cccc(c1)C(=O)N1CCN(CCCCO)C[C@H](C1)O2 [Compound 33] | –
